Assay results reported in paper PMC5054527, “Mechanism of high affinity inhibition of the human urate transporter URAT1” (Scientific Reports, 2016).
Positions count from the first letter of the chain named. Read-outs that look alike come from different tables or passages of the source.

Assays:
Assay in all cases: URAT1 uric acid transport activity assay
Assay type in all cases: cell-based, human/rat
r-h TM7 URAT1 chimera = target: T1, r-h TM7 URAT1 chimera (Rattus norvegicus, UniProt Q3ZAV1, F351C/M354T/Y365F)
T1 construct: expressed in transfected cells; host or cells: HEK-293T
T1 sequence (Q3ZAV1 1-553 F351C/M354T/Y365F): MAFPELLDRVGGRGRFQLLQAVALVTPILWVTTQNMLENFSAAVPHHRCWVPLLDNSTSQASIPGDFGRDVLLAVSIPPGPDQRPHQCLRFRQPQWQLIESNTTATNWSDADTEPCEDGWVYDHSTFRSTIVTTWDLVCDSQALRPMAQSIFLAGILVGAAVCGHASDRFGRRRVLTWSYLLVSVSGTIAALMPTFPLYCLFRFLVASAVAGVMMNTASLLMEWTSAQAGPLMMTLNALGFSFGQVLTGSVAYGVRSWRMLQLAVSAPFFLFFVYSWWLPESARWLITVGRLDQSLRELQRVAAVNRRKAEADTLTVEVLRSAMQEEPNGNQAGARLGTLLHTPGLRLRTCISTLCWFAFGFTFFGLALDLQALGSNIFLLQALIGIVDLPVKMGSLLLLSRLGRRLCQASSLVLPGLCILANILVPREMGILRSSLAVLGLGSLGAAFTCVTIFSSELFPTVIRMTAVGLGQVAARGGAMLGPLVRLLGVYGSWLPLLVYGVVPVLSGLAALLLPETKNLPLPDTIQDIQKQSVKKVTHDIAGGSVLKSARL
Text: (§1) hURAT1 (GenBank BC053348.1) and rURAT1 (NCBI NM_001034943.1) genes were purchased from Origene Technologies, Inc. and subcloned into pCMV6/neo using NotI, creating pCMV6/neo-hURAT1 and pCMV6/neo-rURAT1. Mutants were produced by polymerase chain reaction (PCR) or site-directed mutagenesis using the QuikChange Lightning Multi Site-Directed Mutagenesis Kit (Agilent Technologies). […] Detailed methods are provided in Supplementary Methods, and primers are listed in Supplementary Table 1. […] Residues in rURAT1 and hOAT1 that correspond to the residues in hURAT1 were identified from aligned protein sequences (Supplementary Fig. 1)[50].
(§2) DNA (10 μg) was mixed with 30 μl of DreamFect Gold (Boca Scientific) in 2 ml OptiMem (Life Technologies). After 20 minutes, 18 ml of media containing 2 × 10^7 cells in suspension was added and mixed, and 200 μl per well were plated onto white clear-bottomed poly-D-lysine coated 96-well plates (BD Biosciences). The cells were assayed the following day.
(§3) Compounds were serially diluted into assay buffer and added to the cells for 5 minutes prior to addition of radiolabelled uric acid substrate. URAT1-expressing cells were incubated with 100 μM ^14C-uric acid for 10 minutes. […] Each treatment was measured in triplicate.
(§4) Unlabelled uric acid was prepared at a 20 mM stock just prior to use in a solution containing 20 mM dibasic potassium phosphate and 20 mM potassium hydroxide.
(§5) Nonlinear regression analyses using GraphPad Prism software were used to calculate the potency of URAT1 inhibitors (IC50 values) from log (inhibitor) versus response - variable slope (four parameters) equations. Statistical significance was assessed using Student’s unpaired t-tests.

r-h TM11 URAT1 chimera = target: T2, r-h TM11 URAT1 chimera (Rattus norvegicus, UniProt Q3ZAV1, M481I/V474M)
T2 sequence (Q3ZAV1 1-553 V474M/M481I): T1 sequence (Q3ZAV1 1-553 F351C/M354T/Y365F) with C351F, T354M, F365Y, V474M, M481I
Text: as §1, §2, §3, §4, §5

r-h TM1-N URAT1 chimera = target: T3, r-h TM1-N URAT1 chimera (Rattus norvegicus, UniProt Q3ZAV1, A21T/L18V/T26V/V22M/V25M)
T3 sequence (Q3ZAV1 1-553 L18V/A21T/V22M/V25M/T26V): T1 sequence (Q3ZAV1 1-553 F351C/M354T/Y365F) with L18V, A21T, V22M, V25M, T26V, C351F, T354M, F365Y
Text: as §1, §2, §3, §4, §5

**Q.** Which IC50 (r-h TM7 URAT1 chimera; r-h TM7, HEPES pH 7.3, 100 μM 14C-uric acid, read-out: IC50 (uric acid transport)) does the source give for O=C1C(CC[S+]([O-])c2ccccc2)C(=O)N(c2ccccc2)N1c1ccccc1 (stereo not drawn) [sulfinpyrazone] here?
**A.** 243 ± 22 µM

**Q.** And the IC50 (r-h TM11 URAT1 chimera; r-h TM11, HEPES pH 7.3, 100 μM 14C-uric acid, read-out: IC50 (uric acid transport))?
**A.** 342 ± 32 µM

**Q.** What about the IC50 (r-h TM1-N URAT1 chimera; r-h TM1-N, HEPES pH 7.3, 100 μM 14C-uric acid, read-out: IC50 (uric acid transport)) of the same compound?
**A.** 12 ± 2.6 µM

**Q.** With O=C(O)CSc1nnc(Br)n1-c1ccc(C2CC2)c2ccccc12 [lesinurad, 2-((5-bromo-4-(4-cyclopropylnaphthalen-1-yl)-4H-1,2,4-triazol-3-yl)thio)acetic acid] as the compound, how does the IC50 (r-h TM7 URAT1 chimera; r-h TM7, MES pH 5.5, 100 μM 14C-uric acid, read-out: IC50 (uric acid transport)) read?
**A.** 6.9 ± 0.99 µM

**Q.** And the IC50 (r-h TM11 URAT1 chimera; r-h TM11, MES pH 5.5, 100 μM 14C-uric acid, read-out: IC50 (uric acid transport))?
**A.** 62 ± 3.6 µM

**Q.** What about the IC50 (r-h TM1-N URAT1 chimera; r-h TM1-N, MES pH 5.5, 100 μM 14C-uric acid, read-out: IC50 (uric acid transport)) of the same compound?
**A.** 40 ± 7 µM

**Q.** CCc1oc2ccccc2c1C(=O)c1cc(Br)c(O)c(Br)c1 [benzbromarone] was tested. Which IC50 (r-h TM7 URAT1 chimera) did it give?
**A.** 5.7 ± 0.25 µM

**Q.** And the IC50 (r-h TM11 URAT1 chimera)?
**A.** 12 ± 0.48 µM

**Q.** And the IC50 (r-h TM1-N URAT1 chimera)?
**A.** 16 ± 0.76 µM
